# From PubChem BioAssay (NCI)
# “And” between values parts separate entries of the source, which are not always exact repeats. Identical values can stand only once.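 How tested: cells in 96-well plates exposed to compound for 48 hours at five concentrations. Abbreviation: GI50, concentration required for 50% inhibition of growth. TGI: total growth inhibition.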
# Key:
# Experiment in all cases: NCI-60 cell line screen, 48 h
# OVCAR-4 ovarian = system: OVCAR-4 ovarian
# OVCAR-8 ovarian = system: OVCAR-8 ovarian
# MALME-3M melanoma = system: MALME-3M melanoma
# SN12C renal = system: SN12C renal
# KM12 colon = system: KM12 colon
# RPMI-8226 leukemia = system: RPMI-8226 leukemia
# HCT-116 colon = system: HCT-116 colon
# MOLT-4 leukemia = system: MOLT-4 leukemia
# OVCAR-3 ovarian = system: OVCAR-3 ovarian
# SR leukemia = system: SR leukemia
Compound,TGI (OVCAR-4 ovarian),TGI (OVCAR-8 ovarian),TGI (MALME-3M melanoma),TGI (SN12C renal) [µM],TGI (KM12 colon),TGI (RPMI-8226 leukemia) [µM],TGI (HCT-116 colon) [µM],TGI (MOLT-4 leukemia) [µM],TGI (OVCAR-3 ovarian),GI50 (OVCAR-4 ovarian) [µM],GI50 (OVCAR-8 ovarian) [µM],GI50 (MALME-3M melanoma) [µM],GI50 (SN12C renal) [µM],GI50 (KM12 colon) [µM],GI50 (SR leukemia) [µM],TGI (SR leukemia) [µM],GI50 (RPMI-8226 leukemia) [µM],GI50 (HCT-116 colon) [µM],GI50 (MOLT-4 leukemia) [µM],GI50 (OVCAR-3 ovarian) [µM]
COc1cc(-c2cc(=O)c3ccccc3o2)ccc1N,> 100 µM,> 100 µM,> 100 µM,> 100,> 100 µM,> 100,> 100,> 100,> 100 µM,,,,,,,,,,,
COc1ccc(-c2nn(-c3cccc(NC(=O)Nc4ccc(Cl)c(C(F)(F)F)c4)c3)cc2-c2ccncc2)cc1Cl,9.8 µM,13.1 µM,7.58 µM,> 100,8.55 µM,5.29,8.6,6.74,,2.9,2.43,2.27,2.99,2,1.82,5.65,1.43,2.02,2.08,
O=C1C(=O)N(C(=O)c2ccc(Cl)c(Cl)c2)c2ccc(Cl)cc21,> 100 µM,> 100 µM,,,> 100 µM,> 100,,> 100,> 100 µM,,,,,,,> 100,,,,
CCOC(=O)/C(=C/c1ccc([N+](=O)[O-])cc1)C(=O)c1ccccc1,12.9 µM,12 µM,,3.76,4.65 µM,6.07,5.3,9.38,5.96 µM,3.44,3.73,,1.76,2.16,2.85,> 100,2.34,2.33,3.01,2.56
CC1(C)OC(C(N)=O)=C(C(N)=O)O1,> 100 µM,> 100 µM,> 100 µM,> 100,> 100 µM,,> 100,> 100,> 100 µM,,,,,,,> 100,,,,
Cc1ccc([N+](=O)[O-])cc1NC(=O)C(=O)Cc1occc(=O)c1O,,> 100 µM,,> 100,> 100 µM,> 100,,,> 100 µM,,,,,,,> 100,,,,
O=C(/C=C\c1cccc2ccccc12)c1cccs1,32.9 µM,24.9 µM,25.1 µM,31.5,17.6 µM,7.68,10.7,35.8,23.7 µM,,,,,,,,,,,
O=C(O)c1ccc2c(c1Nc1ccccc1)C(=O)c1ccccc1C2=O,> 100 µM,> 100 µM,> 100 µM,> 100,> 100 µM,,> 100,> 100,> 100 µM,86.1,72.6,54.6,50.3,61.1,41,> 100,,26.6,> 100,20.7
Oc1ccc(CNCc2ccccc2)c2cccnc12,> 100 µM,> 100 µM,,,> 100 µM,0.768,> 100,18.9,0.721 µM,,,,,,,> 100,,,,
COC(=O)C(C(=O)C(=O)Nc1ccccc1C(C)=O)c1nc2ccc(Cl)cc2[nH]c1=O (stereo not drawn),> 100 µM,> 100 µM,> 100 µM,> 100,> 100 µM,> 100,> 100,> 100,> 100 µM,,,,,,,,,,,
CC#CS(=O)(=O)c1ccccc1,11.7 µM,12.5 µM,12.5 µM,19.4,,,17.6,1.43,3.59 µM,,,,,,,,,,,
Cc1c2c(nn1C(=O)c1nn(-c3ccc(Cl)cc3)cc1O)-c1ccccc1CC2,> 100 µM,> 100 µM,> 74 µM,> 100,> 100 µM,,> 100,> 39.5,1.55 µM,0.246,0.0523,0.328,0.0403,0.0632,,,0.0432,0.0339,0.0415,0.185
COc1ccc(-c2cc(=O)c3c(OC)c(OC)c(OC)c(OC)c3o2)cc1OC,> 100 µM,> 100 µM,> 100 µM,> 100,,> 100,> 100,70.3,> 100 µM,,,,,,,> 100,,,,
C#CCOCn1cnc2c(=S)nc[nH]c21,> 100 µM,> 100 µM,> 100 µM,> 100,> 100 µM,> 100,,,> 100 µM,,,,,,,,,,,
CC(=O)O[C@H]1C(=O)O[C@@H]2C[C@H]3C(C)=CC(=O)[C@@H](O)[C@]3(C)[C@H]3[C@@]4(O)OC[C@]32[C@@H]1[C@@H](C)[C@H]4O,0.758 µM and 0.409 µM,1.55 µM and 0.218 µM,0.062 µM and 0.0429 µM,,0.317 µM and 0.306 µM,0.0989,,,0.172 µM and 0.12 µM,0.0394,0.0266,< 0.01,0.0304,0.0178,,,< 0.0142,< 0.01,< 0.01,0.0134
C/C=C/C=N/N(C(=O)c1cc([N+](=O)[O-])cc([N+](=O)[O-])c1)C1=NC(c2ccccc2)C(c2ccccc2)=NN1 (stereo not drawn),> 100 µM,> 100 µM,75.2 µM,> 100,> 100 µM,> 100,84.8,> 100,72 µM,,,,,,,,,,,
O=C1N=C(c2ccccc2)OC1C(=O)c1ccccc1 (stereo not drawn),> 100 µM,> 100 µM,,> 100,> 100 µM,> 100,> 100,> 100,> 100 µM,,,,,,,> 100,,,,
Cc1ccc(S(=O)(=O)/N=c2\ssc(Nc3ccccc3)c2Cl)cc1,> 50 µM,> 50 µM,,25.6,20.4 µM,26.8,,> 50,20.2 µM,33.6,16.5,,8.99,8.26,9.06,25.1,7.77,,10.3,6.08
Nc1ncnc(NC2C=C(CO)C(O)C2O)c1[N+](=O)[O-] (stereo not drawn),> 100 µM,> 100 µM,,> 100,> 100 µM,> 100,75.4,> 100,> 100 µM,,,,,,,> 100,,,,
CN=C1Nc2ccc(Cl)cc2C(c2ccccc2)=NN1C,> 100 µM,> 100 µM,> 100 µM,> 100,> 100 µM,> 100,> 100,> 100,> 100 µM,,,,,,,,,,,
